Assays:
C. freundii = test: MIC of imipenem, ertapenem and meropenem; type: cell-based, Citrobacter freundii
enterobacterial isolates = test: MIC of imipenem, ertapenem and meropenem (groups of isolates, other species); type: cell-based, Enterobacteriaceae
E. coli = test: MIC of imipenem, ertapenem and meropenem; type: cell-based, Escherichia coli

For `C[C@@H](O)[C@H]1C(=O)N2C(C(=O)O)=C(S[C@@H]3CN[C@H](C(=O)N(C)C)C3)[C@H](C)[C@H]12` [MEM, meropenem], which MIC (C. freundii; C. freundii 1003, CTX-M-15 + TEM-1, non-carbapenemase producer) is on record?
The MIC was 0.023 µg/mL.

And the MIC (C. freundii; C. freundii 7767 (wild type))?
The MIC was 0.016 µg/mL.

What about the MIC (C. freundii; C. freundii 7767, (wild type), non-carbapenemase producer) of the same compound?
The MIC was 0.016 µg/mL.

And the MIC (C. freundii; C. freundii 10107 (TEM-1 + SHV-12))?
Its MIC is 0.023 µg/mL.

And the MIC (C. freundii; C. freundii 10107, TEM-1 + SHV-12, non-carbapenemase producer)?
The MIC was 0.023 µg/mL.

What about the MIC (C. freundii; C. freundii 10135 (CTX-M-15)) of the same compound?
The MIC was 0.023 µg/mL.

And the MIC (C. freundii; C. freundii 10135, CTX-M-15, non-carbapenemase producer)?
The MIC was 0.023 µg/mL.

And the MIC (C. freundii; C. freundii MAU (Overexpressed AmpC + TEM-3))?
Its MIC is 1 µg/mL.

What about the MIC (C. freundii; C. freundii MAU, Overexpressed AmpC + TEM-3, non-carbapenemase producer) of the same compound?
The MIC was 1 µg/mL.

What about the MIC (C. freundii; C. freundii STE (NDM-1 + OXA-1 + OXA-9 + OXA-10 + CTX-M-15 + TEM-1)) of the same compound?
Its MIC is over 32 µg/mL.

And the MIC (C. freundii; C. freundii STE, NDM-1 + TEM-1 + CTX-M-15 + VIM-4 + OXA-1 + OXA-9 + OXA-10 + OXA-181)?
The MIC was over 32 µg/mL.

And the MIC (C. freundii; strain C. freundii 10107, TEM-1 + SHV-12, non-carbapenemase producer)?
Its MIC is 0.023 µg/mL.

What about the MIC (C. freundii; strain C. freundii 10135, CTX-M-15, non-carbapenemase producer) of the same compound?
The MIC was 0.023 µg/mL.

And the MIC (C. freundii; strain C. freundii MAU, Overexpressed AmpC + TEM-3, non-carbapenemase producer)?
The MIC was 1 µg/mL.

And the MIC (enterobacterial isolates; S. marcescens 0911033, IMP-1)?
Its MIC is over 32 µg/mL.

And the MIC (enterobacterial isolates; S. marcescens 1008091, VIM-1+ CTX-M-15)?
Its MIC is over 32 µg/mL.

What about the MIC (enterobacterial isolates; S. marcescens C7052, KPC-2 + TEM-1 + SHV-12) of the same compound?
The MIC was over 32 µg/mL.

And the MIC (enterobacterial isolates; S. marcescens D6403, KPC-2 + TEM-1)?
Its MIC is over 32 µg/mL.

And the MIC (E. coli; E. coli 1008 (TEM-1 + CTX-M-1))?
The MIC was 0.016 µg/mL.

What about the MIC (E. coli; E. coli 1008, CTX-M-1 + TEM-1, non-carbapenemase producer) of the same compound?
Its MIC is 0.016 µg/mL.

And the MIC (E. coli; E. coli 1020, CTX-M-1 + TEM-1, non-carbapenemase producer)?
Its MIC is 0.016 µg/mL.

What about the MIC (E. coli; E. coli 1023, CTX-M-2 + TEM-1, non-carbapenemase producer) of the same compound?
Its MIC is 0.016 µg/mL.

And the MIC (E. coli; E. coli 1033, CTX-M-15, non-carbapenemase producer)?
The MIC was 0.016 µg/mL.

And the MIC (E. coli; E. coli 1034 (TEM-1 + SHV-38))?
Its MIC is 0.016 µg/mL.

What about the MIC (E. coli; E. coli 1034, TEM-1 + SHV-38, non-carbapenemase producer) of the same compound?
Its MIC is 0.016 µg/mL.

And the MIC (E. coli; E. coli 1048 (TEM-1 + SHV-2a))?
Its MIC is 0.016 µg/mL.

And the MIC (E. coli; E. coli 1048, TEM-1 + SHV-2a, non-carbapenemase producer)?
Its MIC is 0.016 µg/mL.

And the MIC (E. coli; E. coli 1082 (TEM-1))?
The MIC was 0.016 µg/mL.

What about the MIC (E. coli; E. coli 1082, TEM-1, non-carbapenemase producer) of the same compound?
Its MIC is 0.016 µg/mL.

What about the MIC (E. coli; E. coli 1092 (OXA-1)) of the same compound?
Its MIC is 0.023 µg/mL.

And the MIC (E. coli; E. coli 1092, OXA-1, non-carbapenemase producer)?
Its MIC is 0.023 µg/mL.

What about the MIC (E. coli; E. coli 6252, (wild type), non-carbapenemase producer) of the same compound?
Its MIC is 0.008 µg/mL.

What about the MIC (E. coli; E. coli 6367 (wild type)) of the same compound?
Its MIC is 0.012 µg/mL.

And the MIC (E. coli; E. coli 6367, (wild type), non-carbapenemase producer)?
Its MIC is 0.012 µg/mL.

And the MIC (E. coli; E. coli 10121 (CTX-M-2))?
Its MIC is 0.016 µg/mL.

And the MIC (E. coli; E. coli 10121, CTX-M-2, non-carbapenemase producer)?
Its MIC is 0.016 µg/mL.

And the MIC (E. coli; E. coli 10122, CTX-M-1 + TEM-1, non-carbapenemase producer)?
The MIC was 0.016 µg/mL.

What about the MIC (E. coli; E. coli 0404018, VIM-1+ CMY-6) of the same compound?
Its MIC is 1 µg/mL.

What about the MIC (E. coli; E. coli 1008077, VIM-1+ TEM-1 + CTX-M-15) of the same compound?
The MIC was 4 µg/mL.

What about the MIC (E. coli; E. coli 1108013, IMP-1 + TEM-1) of the same compound?
The MIC was 1 µg/mL.

And the MIC (E. coli; E. coli ALL (NDM-1 + OXA-1 + OXA-2 + CTX-M-15 + TEM-1))?
The MIC was 8 µg/mL.

And the MIC (E. coli; E. coli ALL, NDM-1 + TEM-1 + CTX-M-15 + OXA-1 + OXA-2)?
Its MIC is 8 µg/mL.

And the MIC (E. coli; E. coli AME (OXA-48 + CTX-M-24))?
The MIC was 0.19 µg/mL.

What about the MIC (E. coli; E. coli AME, OXA-48 + CTX-M-24) of the same compound?
The MIC was 0.19 µg/mL.

What about the MIC (E. coli; E. coli AUS (NDM-1 + CTX-M-15 + TEM-1)) of the same compound?
Its MIC is 16 µg/mL.

What about the MIC (E. coli; E. coli AUS, NDM-1 + TEM-1 + CTX-M-15) of the same compound?
Its MIC is 16 µg/mL.

What about the MIC (E. coli; E. coli BER (OXA-48 + CTX-M-15)) of the same compound?
The MIC was 0.19 µg/mL.

And the MIC (E. coli; E. coli BER, OXA-48 + TEM-1 + CTX-M-15)?
Its MIC is 0.19 µg/mL.

What about the MIC (E. coli; E. coli BOK (OXA-48 + CTX-M-15)) of the same compound?
Its MIC is 0.19 µg/mL.

What about the MIC (E. coli; E. coli BOK, OXA-48 + CTX-M-15) of the same compound?
The MIC was 0.19 µg/mL.

And the MIC (E. coli; E. coli BON (OXA-48 + CTX-M-24 + TEM-1))?
Its MIC is 0.19 µg/mL.

What about the MIC (E. coli; E. coli BON, OXA-48 + TEM-1 + CTX-M-24) of the same compound?
The MIC was 0.19 µg/mL.

And the MIC (E. coli; E. coli BOU (OXA-48 + CTX-M-15))?
Its MIC is 0.125 µg/mL.

What about the MIC (E. coli; E. coli BOU, OXA-48 + CTX-M-15) of the same compound?
Its MIC is 0.125 µg/mL.

And the MIC (E. coli; E. coli COL (KPC-2))?
The MIC was 2 µg/mL.

And the MIC (E. coli; E. coli COL, KPC-2 + TEM-1 + CTX-M-9)?
Its MIC is 2 µg/mL.

What about the MIC (E. coli; E. coli DIH (VIM-19)) of the same compound?
The MIC was 4 µg/mL.

And the MIC (E. coli; E. coli DIH, VIM-19)?
Its MIC is 4 µg/mL.

And the MIC (E. coli; E. coli DIN, KPC-2 + TEM-1 + OXA-1)?
The MIC was 0.5 µg/mL.

What about the MIC (E. coli; E. coli E14 (CTX-M-14)) of the same compound?
Its MIC is 0.12 µg/mL.

And the MIC (E. coli; E. coli E14, CTX-M-14, non-carbapenemase producer)?
The MIC was 0.012 µg/mL.

What about the MIC (E. coli; E. coli ECA, ACC-1, non-carbapenemase producer) of the same compound?
Its MIC is 0.012 µg/mL.

What about the MIC (E. coli; E. coli EVB, VEB-1, non-carbapenemase producer) of the same compound?
The MIC was 0.012 µg/mL.

And the MIC (E. coli; E. coli FOR, CTX-M-15, non-carbapenemase producer)?
Its MIC is 0.012 µg/mL.

What about the MIC (E. coli; E. coli GEN (NDM-1 + OXA-1 + CMY-30 + TEM-1)) of the same compound?
The MIC was 12 µg/mL.

And the MIC (E. coli; E. coli GEN, NDM-1 + TEM-1 + CMY-30 + OXA-1)?
The MIC was 12 µg/mL.

What about the MIC (E. coli; E. coli GOG (OXA-48 + CTX-M-24)) of the same compound?
Its MIC is 0.25 µg/mL.

What about the MIC (E. coli; E. coli GUE (NDM-1 + OXA-1 + TEM-1)) of the same compound?
The MIC was 2 µg/mL.

And the MIC (E. coli; E. coli GUE, NDM-1 + TEM-1 + OXA-1)?
The MIC was 2 µg/mL.

And the MIC (E. coli; E. coli HAN (OXA-48 + CTX-M-15))?
The MIC was 1 µg/mL.

What about the MIC (E. coli; E. coli HAN, OXA-48 + CTX-M-15) of the same compound?
The MIC was 1 µg/mL.

And the MIC (E. coli; E. coli HB4 (OmpC-, OmpF-))?
Its MIC is 0.25 µg/mL.

And the MIC (E. coli; E. coli HB4, (OmpC-, OmpF-), non-carbapenemase producer, porin deficiency)?
The MIC was 0.25 µg/mL.

And the MIC (E. coli; E. coli IR5 (NDM-1 + CTX-M-15 + TEM-1))?
Its MIC is 16 µg/mL.

And the MIC (E. coli; E. coli IR5, NDM-1 + TEM-1 + CTX-M-15)?
Its MIC is 16 µg/mL.

What about the MIC (E. coli; E. coli JAP (IMP-1)) of the same compound?
Its MIC is 0.5 µg/mL.

And the MIC (E. coli; E. coli JAP, IMP-1)?
The MIC was 0.5 µg/mL.

What about the MIC (E. coli; E. coli LIL, KPC-2 + TEM-1 + OXA-9) of the same compound?
The MIC was 1 µg/mL.

What about the MIC (E. coli; E. coli MAD (VIM-1 + CTX-M-3)) of the same compound?
The MIC was 0.5 µg/mL.

What about the MIC (E. coli; E. coli MAD, VIM-1+ CTX-M-3) of the same compound?
The MIC was 0.5 µg/mL.

What about the MIC (E. coli; E. coli MAR (Overexpressed AmpC)) of the same compound?
Its MIC is 2 µg/mL.

What about the MIC (E. coli; E. coli MAR, Overexpressed AmpC, non-carbapenemase producer) of the same compound?
The MIC was 2 µg/mL.

What about the MIC (E. coli; E. coli MET, Chromosome-encoded extended-spectrum cephalosporinase, non-carbapenemase producer) of the same compound?
The MIC was 0.012 µg/mL.

What about the MIC (E. coli; E. coli NAA (OXA-48 + CTX-M-24)) of the same compound?
The MIC was 0.25 µg/mL.

What about the MIC (E. coli; E. coli OM3, OXA-48 + TEM-1 + CTX-M-15) of the same compound?
Its MIC is 0.38 µg/mL.
